Assays:
9L glioma tumors [1] = settings: IA-TCH, 1 mL of 0.5 mg/mL, 15 minutes
Method: In a separate experiment, 14 days post-implantation of 9L glioma tumors, eight rats were anesthetized and prepared for IA-TCH. Blood flow reduction for TCH was achieved by bolus IV injection of adenosine and esmolol that were flushed with cold saline. […] Animals were sacrificed 15 minutes after TAT injection. Brain tissue was harvested. Gross sections were imaged with multi-spectral imaging (MSI) system using a photon counting cooled fluorescence camera. A 490 nm light was used for excitation while 525 nm filter was used for imaging the emitted light.

9L glioma [2] = assay: IA-TCH versus IV delivery: uptake by confocal microscopy imaging of frozen sections; format: in vivo, rat; settings: n = 6
Text: Comparison of […] and IV TAT delivery. Fisher 344 rats weighing about 200 g were utilized. During initial surgery under ketamine-xylazine isoflurane anesthesia 5×10^5 9 L cells were implanted 3 mm below the skull and 2-3 mm posterior and lateral to the bregma through a 1 mm craniotomy. […] The animals were assigned separately to IV and IA-TCH groups. On the day of drug delivery, animals were sedated with isoflurane and injected with ketamine/xylazine. The tail vein was cannulated for intravenous access. Under aseptic precautions, a tracheostomy and carotid cannulation were performed. Anesthesia was maintained by mechanical ventilation with isoflurane (1.8-2.2%). Thereafter animals were turned prone on a stereotactic frame. The skull was exposed and the region of tumor implantation was shaved to transparency. A laser Doppler probe was implanted on the skull with the aid of a plastic holder to assess cerebral/tumor blood flow. Rectal temperature, pulse pleth (volume), pulse oxygen saturation, EKG, expired and inspired gas composition, brain and skin blood flow with lase Doppler were continuously monitored.
Transient cerebral hypoperfusion and fluorescein-labeled TAT monomer injection. IA injections were made during TCH by the following method. Reduction of blood flow was achieved by bolus IV injections of adenosine (2 mg) and esmolol (2 mg), and cold saline (1.5 mL at 4° C.). Typically such an intervention decreases cerebral blood flow to about 20% of the baseline. The heart rate response varies from sinus bradycardia to a sinus pause. However, physiological parameters rapidly recover within 3-5 minutes. […] For each animal, a test IA injection was done prior to the onset of hypotension to ensure delivery of the desired injection volume and the injection sequence was resumed after bolus IV injections of hypotensive drugs.
Frozen sections (10 μm thick) were imaged under a Nikon confocal microscope with 470 nm excitation. Due to the large size of the tissue sample, small sections of images were obtained and then assembled together. An adjacent section was stained with hematoxylin and eosin to confirm the size and location of the tumor. The total fluorescence in the tumor region, in the non-tumor ipsi-lateral hemisphere, and in the corresponding region contra-lateral to the tumor was quantified. The contra-lateral hemisphere was used for background correction.

9L glioma tumor = assay: In vivo uptake of TAT dimer versus monomer by IA-TCH (MSI and confocal imaging); parameters: species or system rat; settings: dimer 0.25 mg, monomer 0.125 mg, five rats each
Method: An additional experiment was performed to assess the in vivo uptake of fluorescein-labeled TAT dimer by IA-TCH. About 14 days after 9L glioma tumor implantation, rats were anesthetized and prepared for TAT dimer delivery experiments. TAT dimer was conjugated with fluorescein such that its concentrations in post mortem samples could be determined immediately by multispectral imaging and confocal imaging. TAT dimer (0.25 mg) and monomer (0.125 mg) were tested using IA-TCH delivery both containing equal amounts of fluorescein were evaluated. […] Animals were sacrificed 15 minutes after TAT injection. Brain tissue was harvested.

9L glioma [3] = assay: Quantitative tumor TAT-FITC uptake, electron multiplying charge-coupled device imaging; format: in vivo, rat
Text: In addition to the standard fluorescence imaging described above, we assess tumor uptake of TAT-FITC using a higher resolution, quantitative tool utilizing an electron-multiplying charge coupled device. To accomplish this we used two warm white light LEDs to evenly illuminate the tissue samples through a narrow (10 nm) band pass filter with 470 nm central transmission (Thor Labs, New Jersey). An Evolve 520 high sensitivity electron multiplying charge-coupled device (Photometeric Inc. Tucson, AZ) was utilized while using a 520 nm narrow band pass filter. Each sample was normalized to the background and to the injected drug concentrations. Four 2 mm sections were interrogated for each specimen on either side of the plane of tumor implantation. The data was corrected for ambient light, tissue independent background fluorescence, and contralateral hemisphere tissue fluorescence.

9L glioma tumors [4] = assay: Single arrest study: IV versus IA-TCH (multi-spectral imaging and confocal microscopy); format: in vivo, rat
Method: Single Arrest Study. 9L glioma tumors were implanted into eight rats. […] Animals were sacrificed 15 minutes after injection. […] Brain tissues were also hematoxylin and eosin stained and imaged by confocal microscopy.

[5] = IV injection, confocal microscopy
[6] = IV injection, multi-spectral imaging

SMILES: N=C(N)NCCC[C@H](NC(=O)CNC(=O)c1ccc2c(c1)C(=O)OC21c2ccc(O)cc2Oc2cc(O)ccc21)C(=O)N[C@@H](CCCCN)C(=O)N[C@@H](CCCCN)C(=O)N[C@@H](CCCNC(=N)N)C(=O)N[C@@H](CCCNC(=N)N)C(=O)N[C@@H](CCC(N)=O)C(=O)N[C@@H](CCCNC(=N)N)C(=O)N[C@@H](CCCNC(=N)N)C(=O)N[C@@H](CCCNC(=N)N)C(=O)N1CCC[C@H]1C(=O)N1CCC[C@H]1C(=O)N[C@@H](CCC(N)=O)C(=O)N[C@@H](CCC(N)=O)C(=O)O [fluorescein-labeled TAT monomer, 5-FAM-GRKKRRQRRR PPQQ-COOH]
- Concentration in the tumor versus the opposite side (9L glioma tumors [1]): 13 ×
- Uptake in the tumor compared to adjacent regions (9L glioma tumors [1]): 5 ×
- Contralateral fluorescence (9L glioma [2]; IA-TCH): 161 ± 94 AU
- Ipsi-lateral fluorescence (9L glioma [2]; IA-TCH): 353 ± 76 AU
- Ipsi/contralateral ratio (9L glioma [2]; IA-TCH): 2.7 ± 1.4
- Tumor fluorescence (9L glioma [2]; IA-TCH): 1758 ± 474 AU
- Tumor/contralateral ratio (9L glioma [2]; IA-TCH): 13.8 ± 7.6
- Tumor/ipsi-lateral ratio (9L glioma [2]; IA-TCH): 4.9 ± 0.7
- Contralateral fluorescence (9L glioma [2]; IV): 205 ± 67 AU
- Ipsi-lateral fluorescence (9L glioma [2]; IV): 216 ± 65 AU
- Ipsi/contralateral ratio (9L glioma [2]; IV): 1.1 ± 0.5
- Tumor fluorescence (9L glioma [2]; IV): 528 ± 246 AU
- Tumor/contralateral ratio (9L glioma [2]; IV): 3.0 ± 1.4
- Tumor/ipsi-lateral ratio (9L glioma [2]; IV): 2.4 ± 1.1
- Tumor selective delivery (9L glioma tumor): able to achieve tumor selective drug delivery
- Tumor TAT deposition compared to the corresponding contralateral region (9L glioma [3]; IA-TCH, N=8): 11.7 fold
- Fluorescence in the tumor compared to the ipsilateral non-tumor regions (9L glioma [3]; six animals, FIG. 19E): 7.4 ×
- Fluorescence in the tumor compared to the tumor site on the contralateral hemisphere (9L glioma [3]; six animals, FIG. 19E): 10.5 ×
- Tumor selectivity (9L glioma tumors [4]; IA-TCH): 5-6 ×
- Fluorescence in the tumor versus the contralateral hemisphere (9L glioma tumors [4]; IA-TCH, confocal microscopy): 10.78 ×
- Fluorescence in the tumor versus the ipsilateral brain tissue (9L glioma tumors [4]; IA-TCH, confocal microscopy): 5.07 ×
- Fluorescence in the tumor versus the contralateral hemisphere (9L glioma tumors [4]; IA-TCH, multi-spectral imaging): 9.90 ×
- Fluorescence in the tumor versus the ipsilateral brain tissue (9L glioma tumors [4]; IA-TCH, multi-spectral imaging): 5.93 ×
- Fluorescence in the tumor versus the contralateral hemisphere (9L glioma tumors [4]; [5]): 2.61 ×
- Fluorescence in the tumor versus the ipsilateral brain tissue (9L glioma tumors [4]; [5]): 2.43 ×
- Fluorescence in the tumor versus the contralateral hemisphere (9L glioma tumors [4]; [6]): 2.72 ×
- Fluorescence in the tumor versus the ipsilateral brain tissue (9L glioma tumors [4]; [6]): 2.59 ×
- Tumor selectivity (9L glioma tumors [4]; IV injections): 2 ×
- Tumor concentration, IA-TCH relative to IV (9L glioma tumors [4]; rat, in vivo, iv): about four-fold greater
